Measured values: patent publication US20100119997A1, “METHOD FOR PRODUCTION OF MESENCHYMAL CELL, METHOD FOR PRODUCTION OF TOOTH, AND MESENCHYMAL CELL FOR FORMATION OF TOOTH” (ORGAN TECHNOLOGIES INC., priority 2007, published 2010)

Columns and labels:
[1] = test system: AT805 cells (EC cells); experiment: Differentiation induction of EC cells by DMSO, CD44/CD29 double staining and cell sorter; type: cell-based, mouse; details: for CD44-positive and CD29-positive cells / Cell number: 14 h treatment
Experimental: As the EC cells, AT805 cells (a clone derived from OTT6050, EC cells of the strain129; obtained from the Cell Bank, RIKEN Bioresource Center) were used. Culturing of AT805 cells was performed using Dulbecco's modified Eagle's medium (DMEM; manufactured by SIGMA or Kohjin Bio Co. Ltd.) supplemented with 10% by volume fetal calf serum (FCS: manufactured by JRH, JBS or Hyclone) and 55 μM 2-mercaptoethanol (manufactured by GIBCO). EC cells were usually plated at a concentration of 5 to 8×10^5 cells per 100 mm dish, and complete replacement of the medium and passage culture were repeated every other day. In passage culture, the cells were washed once with HCMF buffer (pH7.4; 10 mM Hepes, 136.9 mM NaCl, 0.34 mM […], 13.9 mM glucose, 5.37 mM KCl), and 5 ml of an enzyme solution wherein trypsin-EDTA.2Na (manufactured by GIBCO) was dissolved at the final concentration of 0.025% was then added thereto, followed by an enzyme treatment at 37° C. for 1 minute. Subsequently, an equal amount of DMEM supplemented with 10% FCS was added to disperse the cells, and the cells were then precipitated and collected by centrifugation. The collected cells were resuspended and plated on a new culture dish to carry out passage culture.
EC cells collected by trypsin treatment were suspended in DMEM supplemented with 10% by volume FCS and dimethylsulfoxide (DMSO: manufactured by SIGMA) at the final concentration of 0.5 to 5% by volume, and plated at the concentration of 1.0×10^6 cells per 100 mm dish. Culture was carried out under 5% CO2 at 37° C., and after 14 hours, the cells were washed once with HCMF buffer, followed by replacement of the medium with DMEM supplemented with 10% by volume FCS.
EC cells treated with DMSO was continuously cultured for 6 days (19 days only in the case of 5% by volume DMSO) with replacement of a half amount of the medium every 3 days with DMEM supplemented with 10% by volume FCS, and observation was carried out as appropriate. When a cell population containing undifferentiated cells was grown, it washed once with HCMF buffer and then suspended by addition of Ca^2+/Mg^2+-free PBS(−)(EDTA/BSA-PBS) supplemented with 3 mM EDTA and 0.5% BSA, followed by centrifugation to collect cells as precipitates. The cells were resuspended in EDTA/BSA-PBS and then subjected to double staining with an FITC-labeled anti-CD44 antibody (CD44-FITC: manufactured by BD Pharmingen) and a PE-labeled anti-CD29 antibody (CD29-PE: manufactured by BD Pharmingen). A CD44-positive and CD29-positive cell fraction was isolated using a cell sorter, Epics ALTRA (manufactured by Beckman Coulter), to obtain an EC cell fraction wherein differentiation was induced by a DMSO treatment and undifferentiated EC cell were excluded (see FIG. 2). These cells were designated DMSO-EC cells.

[2] = test system: AT805 cells (EC cells); experiment: Differentiation induction of EC cells by retinoic acid, CD44/CD29 double staining and cell sorter; type: cell-based, mouse; details: 72 h treatment, 7 culture days
Experimental: AT805 cells collected by a trypsin treatment in the same manner as in Example 1 were plated at a concentration of 1.0×10^6 cells per 100 mm dish, and, on the next day, the medium was replaced with DMEM supplemented with 10% by volume FCS, which was also added with retinoic acid (manufactured by SIGMA) at a final concentration of 0 to 10.0 μM, to stimulate the cells. After 72 hours of culture, the cells were washed twice with HCMF buffer, and the whole medium was replaced with DMEM supplemented with 10% by volume FCS only.
Culturing was continued for 7 days with replacement of a half amount of the medium every 3 days with DMEM supplemented with 10% by volume FCS, and observation was carried out as appropriate. A cell population grown after the RA treatment, which contains undifferentiated cells, was washed once with HCMF, and 3 mM EDTA-0.5% BSA-PBS(−) was added thereto, followed by incubation thereof at 37° C. After collecting cells, the cells were subjected to double staining with CD44 FITC (BD Pharmingen) and CD29 (BD Pharmingen) PE to separate and obtain CD44-positive and CD29-positive cells using Epics ALTRA (Beckman Coulter), and thus a cell population after exclusion of undifferentiated cells, which cell population is composed of only differentiated cells, was obtained. These cells were designated RA-EC cells.

[3] = DMSO 5.0 v/v %, 19 culture days

SMILES	Survival of EC cells immediately after treatment ([1]; 5% by volume DMSO)	CD44-positive and CD29-positive cells ([1]; DMSO 0.5 v/v %, 6 culture days) [%]	Cell number ([1]; DMSO 0.5 v/v %, 6 culture days)	CD44-positive and CD29-positive cells ([1]; DMSO 1.0 v/v %, 6 culture days) [%]	Cell number ([1]; DMSO 1.0 v/v %, 6 culture days)	CD44-positive and CD29-positive cells ([1]; DMSO 2.5 v/v %, 6 culture days) [%]	Cell number ([1]; DMSO 2.5 v/v %, 6 culture days)	CD44-positive and CD29-positive cells [1, 3] [%]	Cell number [1, 3]	CD44-positive and CD29-positive cells ([2]; RA 0.5 μM) [%]	Cell number ([2]; RA 0.5 μM)	CD44-positive and CD29-positive cells ([2]; RA 1.0 μM) [%]	Cell number ([2]; RA 1.0 μM)	CD44-positive and CD29-positive cells ([2]; RA 2.0 μM) [%]	Cell number ([2]; RA 2.0 μM)	CD44-positive and CD29-positive cells ([2]; RA 5.0 μM) [%]	Cell number ([2]; RA 5.0 μM)	CD44-positive and CD29-positive cells ([2]; RA 10.0 μM) [%]	Cell number ([2]; RA 10.0 μM)
C[S+](C)[O-] [DMSO, dimethyl sulfoxide]	most cells died immediately after the treatment	0.3	1.15 ×10^7 cells	0.5	1.19 ×10^7 cells	13.7	1.64 ×10^7 cells	93.0	2.83 ×10^7 cells										
CC1=C(/C=C/C(C)=C/C=C/C(C)=C/C(=O)O)C(C)(C)CCC1 [RA, retinoic acid]										10.8	1.5 ×10^6 cells	10.0	1.1 ×10^6 cells	11.3	1.3 ×10^6 cells	11.5	0.5 ×10^6 cells	10.4	0.7 ×10^6 cells
